According to EP2061765B1, “Serine-threonine protein kinase and PARP modulators” (Senhwa Biosciences, Inc., priority 2006, dated 2008):

Assays:
Assay in all cases: Cell proliferation assay (Alamar Blue)
Assay type in all cases: cell-based
Jurkat = conditions: Homo sapiens, 96 h, Jurkat cells, four days
Description: (§1) A representative cell-proliferation assay protocol using Alamar Blue dye (stored at 4°C, use 20ul per well) is described hereafter. 96-well plate setup and compound treatment • a. Split and trypsinize cells. • b. Count cells using hemocytometer. • c. Plate 4,000-5,000 cells per well in 100 µl of medium and seed into a 96-well plate according to the following plate layout. Add cell culture medium only to wells B10 to B12. Wells B1 to B9 have cells but no compound added. [formula] [formula] • d. Add 100 µl of 2X drug dilution to each well in a concentration shown in the plate layout above. At the same time, add 100 µl of media into the control wells (wells B10 to B12). Total volume is 200 µl/well. • e. Incubate four (4) days at 37°C, 5% CO2 in a humidified incubator. • f. Add 20µl Alamar Blue reagent to each well. • g. Incubate for four (4) hours at 37°C, 5% CO2 in a humidified incubator. • h. Record fluorescence at an excitation wavelength of 544nm and emission wavelength of 590nm using a microplate reader.
(§2) In the assays, cells are cultured with a test compound for approximately four days, the dye then is added to the cells and fluorescence of […] dye is detected after approximately four hours. Different types of cells can be utilized in the assays (e.g., HCT-116 human colorectal carcinoma cells, PC-3 human prostatic cancer cells and MiaPaca human pancreatic carcinoma cells). Anti-proliferative effects of representative compounds are provided hereafter.

MiaPaCa = conditions: Homo sapiens, MIA PaCa-2, 96 h, MiaPaCa cells, four days
Description: as §1, §2

HCT-116 = conditions: Homo sapiens, 96 h, HCT-116 cells, four days
MDAMB231 = conditions: Homo sapiens, MDA-MB-231, 96 h, MDAMB231 cells, four days
Description: as §1, §2

Row | Compound | IC50 (Jurkat) | IC50 (MiaPaCa) | IC50 (HCT-116) | IC50 (MDAMB231)
1 | O=C(O)c1ccc2c(c1)nc(Nc1ccc(Cl)c(C(F)(F)F)c1)c1ccncc12 [drawing 333] | 3.05 µM | 9.09 µM | 3.99 µM | 
2 | O=C(O)c1ccc2c(c1)nc(Nc1cccc(C(F)(F)F)c1)c1ncncc12 [drawing 335] | 2.53 µM | 2.23 µM | > 10 µM | 
3 | CCOc1ncc2c(n1)c(Nc1cccc(C(F)(F)F)c1)nc1cc(C(=O)O)ccc12 [drawing 336] | 35.9 µM | 18.1 µM | > 10 µM | 
4 | Nc1ncc2c(n1)c(Nc1cccc(Cl)c1)nc1cc(C(=O)O)ccc12 [drawing 339] | 1.14 µM | 0.88 µM | > 10 µM | 
5 | C#Cc1cccc(Nc2nc3cc(C(=O)O)ccc3c3cnc(NCCOCC)nc23)c1 [drawing 347] | 1.13 µM | 0.62 µM | > 10 µM | 
6 | C#Cc1cccc(Nc2nc3cc(C(=O)O)ccc3c3cnc(NCCCOCC)nc23)c1 [drawing 348] | 0.39 µM | 0.87 µM | > 10 µM | 
7 | C#Cc1cccc(Nc2nc3cc(C(=O)O)ccc3c3cnc(NCCCOC(C)C)nc23)c1 [drawing 349] | 2.37 µM | 2.01 µM | > 10 µM | 
8 | C#Cc1cccc(Nc2nc3cc(C(=O)OC)ccc3c3cnc(NOC)nc23)c1 [drawing 352] | 27 µM | > 50 µM | > 10 µM | 
9 | COC(=O)c1ccc2c(c1)nc(Nc1cccc(Cl)c1)c1nc(NCCC(N)=O)ncc12 [drawing 353] | 4.41 µM | 17.1 µM | > 10 µM | 
10 | NC(=O)CCNc1ncc2c(n1)c(Nc1cccc(Cl)c1)nc1cc(C(=O)O)ccc12 [drawing 354] | 37.7 µM | > 50 µM | > 10 µM | 
11 | O=C(O)CCNc1ncc2c(n1)c(Nc1cccc(Cl)c1)nc1cc(C(=O)O)ccc12 [drawing 355] | > 50 µM | > 50 µM | > 10 µM | 
12 | Cc1cccc(Nc2nc3cc(C(=O)O)ccc3c3cnccc23)c1 [drawing 356] | 3.45 µM | 8.33 µM | > 10 µM | 
13 | O=C(O)c1ccc2c(c1)nc(Nc1cccc(C(F)(F)F)c1)c1ccncc12 [drawing 357] | 3.15 µM | 8.55 µM | 5.14 µM | 
14 | O=C(O)c1ccc2c(c1)nc(Nc1ccccc1)c1nc(Nc3ccccc3)ncc12 [drawing 369] | 8.98 µM | 5.12 µM | > 10 µM | 
15 | CCOC(=O)CCNC(=O)c1ccc2c(c1)nc(Nc1cccc(C(F)(F)F)c1)c1nc(NC3CC3)ncc12 [drawing 371] | 3.75 µM | 0.33 µM | > 10 µM | 
16 | CCCNc1ncc2c(n1)c(Nc1ccccc1)nc1cc(C(=O)O)ccc12 [drawing 390] |  |  |  | 18.2 µM
17 | COCCNc1ncc2c(n1)c(Nc1ccccc1)nc1cc(C(=O)O)ccc12 [drawing 391] |  |  |  | 24.4 µM
18 | O=C(O)c1ccc2c(c1)nc(Nc1ccccc1)c1nc(NCCO)ncc12 [drawing 392] |  |  |  | > 50 µM
19 | O=C(O)c1ccc2c(c1)nc(Nc1ccccc1)c1nc(NCCCO)ncc12 [drawing 393] |  |  |  | 48.2 µM
20 | CCN(CC)CCNc1ncc2c(n1)c(Nc1ccccc1)nc1cc(C(=O)O)ccc12 [drawing 395] |  |  |  | 10.5 µM
21 | O=C(O)c1ccc2c(c1)nc(Nc1ccccc1)c1nc(NCCN3CCOCC3)ncc12 [drawing 396] |  |  |  | 2.44 µM
22 | O=C(O)c1ccc2c(c1)nc(Nc1ccccc1)c1nc(NCCCN3CCOCC3)ncc12 [drawing 397] |  |  |  | > 50 µM
23 | C#Cc1cccc(Nc2nc3cc(C(=O)O)ccc3c3cnc(NCCC)nc23)c1 [drawing 399] |  |  |  | 10.4 µM
24 | C#Cc1cccc(Nc2nc3cc(C(=O)O)ccc3c3cnc(NCCOC)nc23)c1 [drawing 400] |  |  |  | 4.74 µM
25 | C#Cc1cccc(Nc2nc3cc(C(=O)O)ccc3c3cnc(NCCCN4CCOCC4)nc23)c1 [drawing 402] |  |  |  | 12.5 µM
26 | C#Cc1cccc(Nc2nc3cc(C(=O)O)ccc3c3cnc(NC)nc23)c1 [drawing 403] |  |  |  | 5.21 µM
27 | O=C(O)c1ccc2c(c1)nc(Nc1ccc(Cl)c(C(F)(F)F)c1)c1ccncc12 [drawing 404] |  |  |  | 4.43 µM
28 | O=C(O)c1ccc2c(c1)nc(Nc1cccc(C(F)(F)F)c1)c1ncncc12 [drawing 406] |  |  |  | 2.93 µM
29 | CCOc1ncc2c(n1)c(Nc1cccc(C(F)(F)F)c1)nc1cc(C(=O)O)ccc12 [drawing 407] |  |  |  | 26.5 µM
30 | CN(C)c1ncc2c(n1)c(Nc1cccc(Cl)c1)nc1cc(C(=O)O)ccc12 [drawing 409] |  |  |  | 9.82 µM

Results, then the molecule that gave them:

Row | IC50 (Jurkat) | IC50 (MiaPaCa) | IC50 (HCT-116) | IC50 (MDAMB231) | Compound
31 | 1.29 µM | 0.47 µM | 7.82 µM |  | O=C(O)c1ccc2c(c1)nc(Nc1cccc(Cl)c1)c1nc(NC3CC3)ncc12 [drawing 334]
32 | 18.4 µM | 5.45 µM | > 10 µM |  | CC(C)Nc1ncc2c(n1)c(Nc1cccc(Cl)c1)nc1cc(C(=O)O)ccc12 [drawing 340]
33 | 1.24 µM | 0.65 µM | > 10 µM |  | CNc1ncc2c(n1)c(Nc1ccc(F)c(Cl)c1)nc1cc(C(=O)O)ccc12 [drawing 343]
34 | 4.34 µM | 0.95 µM | 11.2 µM |  | Nc1ncc2c(n1)c(Nc1ccc(F)c(Cl)c1)nc1cc(C(=O)O)ccc12 [drawing 344]
35 | 1.54 µM | 0.37 µM | > 10 µM |  | O=C(O)c1ccc2c(c1)nc(Nc1ccc(F)c(Cl)c1)c1nc(NC3CC3)ncc12 [drawing 345]
36 | 0.41 µM | 1.08 µM | > 10 µM |  | COCCNc1ncc2c(n1)c(Nc1ccc(F)c(Cl)c1)nc1cc(C(=O)O)ccc12 [drawing 346]
37 | > 50 µM | > 50 µM | > 10 µM |  | O=C(O)c1ccc2c(c1)nc(Nc1cccc(Cl)c1)c1nc(O)ncc12 [drawing 350]
38 | 4.95 µM | 5.39 µM | > 10 µM |  | Cc1ncc2c(n1)c(Nc1cccc(Cl)c1)nc1cc(C(=O)O)ccc12 [drawing 351]
39 | 6.02 µM | 2.32 µM | > 10 µM |  | O=C(O)c1ccc2c(c1)nc(Nc1cc(F)cc(F)c1)c1nc(NC3CC3)ncc12 [drawing 358]
40 | 3.56 µM | 3.27 µM | > 10 µM |  | O=C(O)c1ccc2c(c1)nc(Nc1cccc(F)c1)c1nc(NC3CC3)ncc12 [drawing 359]
41 | 3.44 µM | 2.85 µM | > 10 µM |  | COc1cccc(Nc2nc3cc(C(=O)O)ccc3c3cnc(NC4CC4)nc23)c1 [drawing 360]
42 | 1.25 µM | 2.14 µM | > 10 µM |  | CN(C)CCNc1ncc2c(n1)c(Nc1ccc(F)c(Cl)c1)nc1cc(C(=O)O)ccc12 [drawing 361]
43 | 2.59 µM | 8.21 µM | > 10 µM |  | O=C(O)c1ccc2c(c1)nc(Nc1ccc(F)c(Cl)c1)c1nc(NCc3ccccn3)ncc12 [drawing 362]
44 | 1.12 µM | 3.41 µM | > 10 µM |  | COC(CNc1ncc2c(n1)c(Nc1ccc(F)c(Cl)c1)nc1cc(C(=O)O)ccc12)OC [drawing 363]
45 | 1.16 µM | 3.97 µM | > 10 µM |  | NC(=O)c1ccc2c(c1)nc(Nc1cccc(C(F)(F)F)c1)c1nc(NC3CC3)ncc12 [drawing 364]
46 | 3.65 µM | 11.9 µM | > 10 µM |  | CNC(=O)c1ccc2c(c1)nc(Nc1cccc(C(F)(F)F)c1)c1nc(NC3CC3)ncc12 [drawing 366]
47 | 1.5 µM | 1.97 µM | > 10 µM |  | O=C(O)c1ccc2c(c1)nc(Nc1ccc(F)c(Cl)c1)c1nc(NCc3cccnc3)ncc12 [drawing 367]
48 | 5.11 µM | 4.5 µM | > 10 µM |  | O=C(O)c1ccc2c(c1)nc(Nc1ccc(F)c(Cl)c1)c1nc(NCc3ccncc3)ncc12 [drawing 368]
49 |  |  |  | 1.11 µM | O=C(O)c1ccc2c(c1)nc(Nc1ccc(F)c(Cl)c1)c1ncncc12 [drawing 374]
50 |  |  |  | 0.73 µM | O=C(O)c1ccc2c(c1)nc(Nc1ccccc1)c1nc(NC3CC3)ncc12 [drawing 389]
51 |  |  |  | > 50 µM | O=C(O)c1ccc2c(c1)nc(Nc1ccccc1)c1nc(NC3CCNCC3)ncc12 [drawing 394]
52 |  |  |  | 4.9 µM | C#Cc1cccc(Nc2nc3cc(C(=O)O)ccc3c3cnc(NC4CC4)nc23)c1 [drawing 398]
53 |  |  |  | > 50 µM | C#Cc1cccc(Nc2nc3cc(C(=O)O)ccc3c3cnc(NC4CCNCC4)nc23)c1 [drawing 401]
54 |  |  |  | 3.93 µM | O=C(O)c1ccc2c(c1)nc(Nc1cccc(Cl)c1)c1nc(NC3CC3)ncc12 [drawing 405]
55 |  |  |  | 8.28 µM | CNc1ncc2c(n1)c(Nc1cccc(Cl)c1)nc1cc(C(=O)O)ccc12 [drawing 408]
56 |  |  |  | 4.12 µM | Nc1ncc2c(n1)c(Nc1cccc(Cl)c1)nc1cc(C(=O)O)ccc12 [drawing 410]
57 |  |  |  | 20.8 µM | CC(C)Nc1ncc2c(n1)c(Nc1cccc(Cl)c1)nc1cc(C(=O)O)ccc12 [drawing 411]
58 |  |  |  | 9.19 µM | O=C(O)c1ccc2c(c1)nc(Nc1cccc(C(F)(F)F)c1)c1nc(NC3CC3)ncc12 [drawing 412]
59 |  |  |  | 6.87 µM | CCNc1ncc2c(n1)c(Nc1cccc(Cl)c1)nc1cc(C(=O)O)ccc12 [drawing 413]
60 |  |  |  | 15.8 µM | CNc1ncc2c(n1)c(Nc1ccc(F)c(Cl)c1)nc1cc(C(=O)O)ccc12 [drawing 414]
